In patent publication US12509482B2, “3′-ketoglycoside compound for the slow release of a volatile alcohol” (GLYCOSCIENCE, S.L., priority 2020, dated 2025):
Where “and” joins values, the source holds several entries; their conditions need not be identical. Equal values may be shown once.

Key:
[1] = test system: mosquito Culex pipiens pallens; conditions: Park et al., J. Am. Mosquito Control Assoc., 2005; cited from earlier work
[2] = Example 31: stability of geranyl-O-β-D-3′-ketoglucopyranoside in D2O at 50° C.; assay type: physicochemical; conditions: 5 mg in D2O (1 mL), 2 weeks
Description: Geranyl-O-β-D-3′-ketoglucopyranoside, obtained according to Example 4 (5 mg) was added to D2O (1 mL) and heated at 50° C.

[3] = test system: Aedes albopictus mosquitoes; test: Example 33: in vitro mosquito testing, landings on treated Hemotek membranes; assay type: in vivo; conditions: for Landing (total number of landings over the 20-minute exposure): 50 mg on membrane, 15 females, duplicate membranes
Description: Aedes albopictus mosquitoes were reared and maintained at 26±2° C. temperature, ≥80%±10 relative humidity, with a 12 h:12 h (light:dark) photoperiod.
Populations of adult mosquitoes were allowed to feed on sugar solution (10%) but were not blood fed before tests.
Geranyl-O-β-D-3′-ketoglucopyranoside, obtained according to Example 4, (100 mg) was dissolved in polyethylene glycol 200 (PEG200) (0.2 mL) with gentle heating to give Solution 1. Then 200 mg of L-arginine was dissolved in 2 mL of a 3:7 w/v solution of anhydrous calcium chloride in water to give Solution 2. Solution 2 (0.2 mL) was added to all of Solution 1 to give Solution 3. The contents of Solution 3 were thoroughly mixed and half of the resultant solution was applied to parallel 5 cm diameter artificial Hemotek membranes covered with paper kitchen towel of equal diameter. Parallel duplicate membranes, covered with paper kitchen towel, were also each treated with 0.2 mL of a 1:1 v/v solution of PEG200/Solution 2 and a further two parallel membranes were left untreated.
The membranes were heated over a reservoir of sheeps' blood at 37° C. using a Hemotek system and periodically exposed to 5- to 7-day old active host-seeking female mosquitoes, selected and collected using an aspirator and organized into batches (15 females) in plastic test containers. The heating was switched off between exposures to maintain membrane integrity and switched on 5 minutes prior to each exposure. Each membrane was exposed to a fresh container of female mosquitos for 20 minutes immediately after membrane preparation and again after 2 h, 4 h, 6 h and 8 h. At each time point, the number of mosquitos landing on each membrane immediately after exposure and 5, 10 and 20 minutes after exposure was counted and the total number of landings over each 20-minute exposure summed and tabulated.

[4] = Example 16: release of geraniol from geranyl-O-β-D-3′-ketoglucopyranoside, 0.1 M deuterated phosphate buffer, 10% D6-DMSO, 37° C., presence and absence of fresh skin wash; assay type: physicochemical
Description: In this example the rate of release of geraniol from (2R,3S,6R)-2-(((E)-3,7-dimethylocta-2,6-dien-1-yl)oxy)-3,5-dihydroxy-6-(hydroxymethyl)tetrahydro-4H-pyran-4-one (geranyl-O-β-D-3′-ketoglucopyranoside) in 0.1 M deuterated phosphate buffer solutions of differing pH containing 10% D6-DMSO or in D2O containing 10% D6-DMSO at 37° C. in the presence and absence of fresh skin wash was determined.
1 M Stock solutions of sodium dihydrogen phosphate and disodium hydrogen phosphate were prepared in deuterated water (D2O).
A stock solution of 25 mg of geranyl-O-β-D-3′-ketoglucopyranoside in 0.5 mL of D6-DMSO were prepared.
In a typical experiment, a stock solution of fresh skin wash suspension was prepared by swabbing a 25 cm^2 areas of cheek skin of a human volunteer by robustly rubbing the area with a cotton wool gauze (5×5 cm^2) soaked in D2O (12.5 mL) for 1 minute and then resuspending the gauze in the D2O solution, rapidly shaking and removing the gauze after squeezing out as much liquid as possible with a spatula. 1 M Stock solutions phosphate buffer, pH 5.7 and 7.0 were prepared by appropriately mixing 1 M stock phosphate salts solutions to the correct pH as determined using a calibrated pH meter.
Half of each buffer stock solution was diluted ten times with D2O and the other with the above skin washing stock solution to give a 0.1 M phosphate buffer in D2O with a final pH of 5.7, 0.1 M phosphate buffer in D2O with a final pH of 7.0, a 0.1 M phosphate buffer in skin wash solution with a final pH of 5.7 and a 0.1 M phosphate buffer in skin wash solution with a final pH of 7.0.
To three parallel reaction vials, where indicated in the reaction table below, was added 0.45 mL of low or high pH 0.1 M phosphate buffer in D2O or 0.45 mL of low or high pH 0.1M phosphate buffer in skin wash solution followed by 0.05 mL of the glycoside substrate solutions in D6-DMSO and the mixtures incubated by shaking at 37° C. After times indicated in table below, the mixtures where analysed by ^1H-NMR with 128 scans using a 400 MHz instrument.

[5] = Example 17: release of geraniol from a 40 mg/mL suspension of geranyl-O-β-D-3′-ketoglucopyranoside, 0.1 M phosphate buffer pH 7, 10% DMSO, 37° C.; assay type: physicochemical; conditions: after 3 d
Description: In this example the rate of release of geraniol from a 40 mg/mL suspension of (2R,3S,6R)-2-(((E)-3,7-dimethylocta-2,6-dien-1-yl)oxy)-3,5-dihydroxy-6-(hydroxymethyl)tetrahydro-4H-pyran-4-one (geranyl-O-β-D-3′-ketoglucopyranoside) in 0.1 M deuterated phosphate buffer solution, pH 7, containing 10% DMSO at 37° C. was determined.
In a stoppered glass vial, geranyl-O-β-D-3′-ketoglucopyranoside (20 mg) was dissolved in D6-DMSO (0.05 mL) then diluted with 0.1 M sodium phosphate buffer, pH 7.0 (0.45 mL) and the resultant suspension incubated by shaking at 37° C.

[6] = Description: alcohol release from model compounds (III), (IV) and compound (V) in buffer, water and skin washings; assay type: physicochemical
[7] = Example 32: release of geraniol from geranyl-O-β-D-3′-ketoglucopyranoside (PEG200, L-arginine, calcium chloride solution) on a paper kitchen towel disc, room temperature; assay type: physicochemical
Description: Geranyl-O-β-D-3′-ketoglucopyranoside, obtained according to Example 4, (50 mg) was dissolved in polyethylene glycol 200 (PEG200) (0.1 mL) with gentle heating. 0.1 mL of a solution of L-arginine (10 mg) dissolved in 0.1 mL of a 3:7 w/v solution of anhydrous calcium chloride in water was then added and thoroughly mixed. The resultant solution was spread over a 5 cm diameter paper kitchen towel disc and left to stand at room temperature. The smell of released geraniol evolved from the disc was then assessed with time as strong, medium or weak and reported in Table XIX:
After 19 h, the reaction mixture was dissolved in D4-MeOH and analysed by 1H NMR.

## Cc1ccc(C(C)C)cc1O [Carvacrol, 2-methyl-5-propan-2-ylphenol]
[1]
  repellency compared with DEET (in words): outperformed N,N-diethyl-m-methylbenzamide (DEET)

## CC(C)=CCC/C(C)=C/CO[C@@H]1O[C@H](CO)[C@@H](O)C(=O)[C@H]1O [geranyl-O-β-D-3′-ketoglucopyranoside, (2R,3S,6R)-2-(((E)-3,7-dimethylocta-2,6-dien-1-yl)oxy)-3,5-dihydroxy-6-(hydroxymethyl)tetrahydro-4H-pyran-4-one]
[2]
  stability in D2O by 1H NMR (in words): stable
[3]; 6 h, listed as GS0010
  Landing (total number of landings over the 20-minute exposure): 4 and 3
[3]; 8 h
  Landing (total number of landings over the 20-minute exposure): 0
[3]; in vivo
  repellent effect (conclusion in words): a repellent effect is provided
[3]; over 8 h
  landings compared with diluent treated or untreated membranes (in words): significantly fewer landings than observed with diluent treated or untreated membranes
[4]; 0.1M buffer in D2O, final pH 5.7, 19 h
  % Conversion by 1H-NMR: 3%
[4]; 0.1M buffer in D2O, final pH 5.7, 41 h
  % Conversion by 1H-NMR: 6%
[4]; 0.1M buffer in D2O, final pH 5.7, 72 h
  % Conversion by 1H-NMR: 10%
[4]; 0.1M buffer in D2O, final pH 7.0, 19 h
  % Conversion by 1H-NMR: 9%
[4]; 0.1M buffer in D2O, final pH 7.0, 41 h
  % Conversion by 1H-NMR: 28%
[4]; 0.1M buffer in D2O, final pH 7.0, 72 h
  % Conversion by 1H-NMR: 51%
[4]; 0.1M buffer in skin wash solution, final pH 7.0, 19 h
  % Conversion by 1H-NMR: 10%
[4]; 0.1M buffer in skin wash solution, final pH 7.0, 41 h
  % Conversion by 1H-NMR: 31%
[4]; 0.1M buffer in skin wash solution, final pH 7.0, 72 h
  % Conversion by 1H-NMR: 48%
[4]; 37° C., presence or absence of skin wash
  pH dependence of geraniol release (in words): only slowly degraded at pH 5.8, but releases geraniol at a significantly higher rate at pH 7.4 that is unchanged in the presence or absence of skin wash
[5]
  extent of conversion to geraniol by 1H-NMR: approximately 50%
  smell of geraniol: a strong smell of geraniol was observed
[6]
  degradation rate compared with compound (III) (in words): degraded significantly faster than compound (III)
[6]; 20 mg/mL mixture, after 3 d
  aroma of geraniol on opening the stoppered reaction vessel: a very pungent aroma of geraniol was immediately noticeable
[6]; after 3 days
  degraded: approximately 50%
[7]; 0 h
  Geraniol strength by smell: strong
[7]; 0.3 h
  Geraniol strength by smell: strong
[7]; 2 h
  Geraniol strength by smell: strong
[7]; 3 h
  Geraniol strength by smell: strong
[7]; 4 h
  Geraniol strength by smell: strong
[7]; 6 h
  Geraniol strength by smell: strong
[7]; 11 h
  Geraniol strength by smell: medium
[7]; 19 h
  Geraniol strength by smell: medium
